Literature values as cited in US20130202654A1, “Topical Foam Composition” (priority 2009, published 2013).
Like-named read-outs stand apart in the source and are kept apart here.

Tests used:
[1] = not given; remark: listed apart in the source
[2] = not given; remark: listed apart in the source

CO[C@H]1/C=C/O[C@@]2(C)Oc3c(C)c(O)c4c(O)c(c5c(nc6cc(C)ccn65)c4c3C2=O)NC(=O)/C(C)=C\C=C\[C@H](C)[C@H](O)[C@@H](C)[C@@H](O)[C@@H](C)[C@H](OC(C)=O)[C@@H]1C [Rifaximin, (2S,16Z,18E,20S,21S,22R,23R,24R,25S,26S,27S,28E)-5,6,21,23,25-pentahydroxy-27-methoxy-2,4,11,16,20,22,24,26-octamethyl-2,7-(epoxypentadeca-[1,11,13]trienimino)benzofuro[4,5-e]pyrido[1,2-a]-benzimida-zole-1,15(2H)-dione,25-acetate]
solubility in alcohol, ethyl acetate, chloroform and toluene (alcohol, ethyl acetate, chloroform, toluene): soluble | solubility in alcohols (alcohols): readily soluble | solubility in water: water insoluble | solubility in water (listed as rifaximin): virtually insoluble in water | bound to plasma proteins [1]: 67.5% | Tmax ([2]; in vivo): 0.8 h | half-life ([2]; in vivo): 1.8 h | Cmax ([2]; low systemic absorption): 3.4 ng/mL
